Test results reported in patent US11878965B2, “Inhibitors of peptidylarginine deiminases” (Gilead Sciences, Inc., priority 2020, dated 2024).
pIC50: −log10 of the molar value.

These compounds were tested against human PAD4 (Homo sapiens (Human), UniProt Q9UM07) (assay: In Vitro PAD4 BAEE Biochemical Assay). Conditions: human PAD4, BAEE substrate; 5 nM PAD4, 2 mM calcium chloride, 3 mM BAEE; geometric mean of multiple experiments.
Summary of the method: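 Recombinant human PAD4 (His-SUMO tag removed, E. coli-expressed), 5 nM, preincubated with compound and 2 mM CaCl2 30 min at 25 °C in MOPS pH 7.6 with DTT; 3 mM BAEE added for 2 h at 25 °C, EDTA stop. Released ammonia detected by o-phthalaldehyde/DTT fluorescence (ex 405, em 535 nm).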

Sequence of human PAD4 (Q9UM07 2-663): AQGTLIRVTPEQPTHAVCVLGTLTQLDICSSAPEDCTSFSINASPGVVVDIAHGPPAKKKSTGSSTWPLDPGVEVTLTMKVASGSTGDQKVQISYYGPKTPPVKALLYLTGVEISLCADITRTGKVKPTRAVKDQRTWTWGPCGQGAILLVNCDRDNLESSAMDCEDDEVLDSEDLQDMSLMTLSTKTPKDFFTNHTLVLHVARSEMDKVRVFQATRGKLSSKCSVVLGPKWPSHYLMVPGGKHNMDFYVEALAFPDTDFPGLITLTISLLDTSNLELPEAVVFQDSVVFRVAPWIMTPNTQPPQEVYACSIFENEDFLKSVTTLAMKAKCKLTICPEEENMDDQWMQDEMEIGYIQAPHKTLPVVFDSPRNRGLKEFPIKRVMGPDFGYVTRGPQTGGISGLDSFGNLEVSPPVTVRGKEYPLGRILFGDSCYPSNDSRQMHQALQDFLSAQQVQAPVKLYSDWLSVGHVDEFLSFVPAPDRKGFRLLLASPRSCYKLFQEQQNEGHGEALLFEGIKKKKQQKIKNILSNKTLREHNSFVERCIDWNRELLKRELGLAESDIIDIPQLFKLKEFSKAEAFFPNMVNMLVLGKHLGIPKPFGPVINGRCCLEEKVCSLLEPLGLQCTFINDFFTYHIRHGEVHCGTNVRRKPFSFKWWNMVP

| pIC50 | SMILES |
| --- | --- |
| 5.29 | CCN(C(=O)OC)c1ccc2cc(-c3nc4cc(C(=O)N5CCC[C@@H](N)C5)ccc4n3C3CC3)n(CC3CC3)c2n1 [Example 112, (R)-methyl (2-(5-(3-aminopiperidine-1-carbonyl)-1-cyclopropyl-1H-benzo[d]imidazol-2-yl)-1-(cyclopropylmethyl)-1H-pyrrolo [2,3-b]pyridin-6-yl) (ethyl)carbamate] |
| 6.78 | C[C@@H](NC(=O)N(C)C)c1ccc2cc(-c3nc4cc(C(=O)N[C@H]5CNCC[C@@H]5F)c(F)cc4n3C)n(CC3CC3)c2n1 [Example 239, 2-(1-(cyclopropylmethyl)-6-((R)-1-(3,3-dimethylureido)ethyl)-1H-pyrrolo[2,3-b]pyridin-2-yl)-6-fluoro-N-((3S,4S)-4-fluoropiperidin-3-yl)-1-methyl-1H-benzo[d]imidazole-5-carboxamide] |
| 7.01 | CCN(c1ccc2cc(-c3nc4cc(C(=O)N5CCC[C@@H](N)[C@H]5C)cc(OC)c4n3C)n(CC3CC3)c2n1)S(C)(=O)=O [Example 28, N-(2-(5-((2R,3R)-3-amino-2-methylpiperidine-1-carbonyl)-7-methoxy-1-methyl-1H-benzo[d]imidazol-2-yl)-1-(cyclopropylmethyl)-1H-pyrrolo [2,3-b]pyridin-6-yl)-N-ethylmethanesulfonamide] |
| 7.10 | CCN(c1ccc2cc(-c3nc4cc(C(=O)N5CCC[C@@H](N)C5)cc(OC)c4n3C)n(CC3CC3)c2n1)S(C)(=O)=O [Example 5, (R)-N-(2-(5-(3-aminopiperidine-1-carbonyl)-7-methoxy-1-methyl-1H-benzo[d]imidazol-2-yl)-1-(cyclopropylmethyl)-1H-pyrrolo [2,3-b]pyridin-6-yl)-N-ethylmethanesulfonamide] |
| 6.85 | COc1cc(C(=O)N2CC[C@@H](O)[C@@H](N)C2)cc2nc(-c3cc4ccc(N(C(F)F)S(C)(=O)=O)nc4n3CC3CC3)n(C)c12 [Example 51, N-(2-(5-((3S,4R)-3-amino-4-hydroxypiperidine-1-carbonyl)-7-methoxy-1-methyl-1H-benzo[d]imidazol-2-yl)-1-(cyclopropylmethyl)-1H-pyrrolo [2,3-b]pyridin-6-yl)-N-(difluoromethyl) methanesulfonamide] |
| 6.64 | COc1cc(C(=O)N2C[C@H](N)CCN2C)cc2nc(-c3cc4ccc([C@@H](C)NC(=O)C(C)(C)c5ccccc5)nc4n3CC3CC3)n(C)c12 [Example 159, N-((R)-1-(2-(5-((R)-5-amino-2-methylhexahydropyridazine-1-carbonyl)-7-methoxy-1-methyl-1H-benzo[d]imidazol-2-yl)-1-(cyclopropylmethyl)-1H-pyrrolo[2,3-b]pyridin-6-yl)ethyl)-2-methyl-2-phenylpropanamide] |
| 6.47 | COc1cc(C(=O)N2C[C@H](N)CCN2C)cc2nc(-c3cc4ccc([C@@H](C)NC(=O)C5(c6ccc(F)cc6)CC5)nc4n3CC3CC3)n(C)c12 [Example 199, N-((R)-1-(2-(5-((R)-5-amino-2-methylhexahydropyridazine-1-carbonyl)-7-methoxy-1-methyl-1H-benzo[d]imidazol-2-yl)-1-(cyclopropylmethyl)-1H-pyrrolo[2,3-b]pyridin-6-yl)ethyl)-1-(4-fluorophenyl)cyclopropane-1-carboxamide] |
| 6.90 | COc1cc(C(=O)N2CCC[C@@H](N)C2)cc2nc(-c3cc4ccc(N(C)S(C)(=O)=O)nc4n3CC3CC3)n(CC3CC3)c12 [Example 23, (R)-N-(2-(5-(3-aminopiperidine-1-carbonyl)-1-(cyclopropylmethyl)-7-methoxy-1H-benzo[d]imidazol-2-yl)-1-(cyclopropylmethyl)-1H-pyrrolo[2,3-b]pyridin-6-yl)-N-methylmethanesulfonamide] |

| SMILES | pIC50 |
| --- | --- |
| COc1cc(C(=O)N2[C@H]3CC[C@@H]2[C@H](N)C3)cc2nc(-c3cc4ccc(N(C(C)C)S(C)(=O)=O)nc4n3CC3CC3)n(C)c12 [Example 84, N-(2-(5-((1R,2R,4S)-2-amino-7-azabicyclo[2.2.1]heptane-7-carbonyl)-7-methoxy-1-methyl-1H-benzo[d]imidazol-2-yl)-1-(cyclopropylmethyl)-1H-pyrrolo[2,3-b]pyridin-6-yl)-N-isopropylmethanesulfonamide] | 7.23 |
| COc1cc(C(=O)N2[C@H]3CC[C@@H]2[C@H](N)C3)cc2nc(-c3cc4ccc([C@H]5CCCN5C(=O)N5CCCC5)nc4n3CC3CC3)n(C)c12 [Example 248, ((R)-2-(2-(5-((1R,2R,4S)-2-amino-7-azabicyclo[2.2.1]heptane-7-carbonyl)-7-methoxy-1-methyl-1H-benzo[d]imidazol-2-yl)-1-(cyclopropylmethyl)-1H-pyrrolo[2,3-b]pyridin-6-yl)pyrrolidin-1-yl)(pyrrolidin-1-yl)methanone] | 7.39 |
| COc1cc(C(=O)N2[C@H]3CC[C@@H]2[C@H](N)C3)cc2nc(-c3cc4ccc([C@@H](C)NC(=O)C5(OC)CC5)cc4n3CC3CC3)n(C3CC3)c12 [Example 147, N-((R)-1-(2-(5-((1R,2R,4S)-2-amino-7-azabicyclo[2.2.1]heptane-7-carbonyl)-1-cyclopropyl-7-methoxy-1H-benzo[d]imidazol-2-yl)-1-(cyclopropylmethyl)-1H-indol-6-yl)ethyl)-1-methoxycyclopropane-1-carboxamide] | 7.10 |

Same assay, conditions: recombinant PAD4 5 nM, 2 mM calcium chloride, 3 mM BAEE substrate; geometric mean of multiple experiments

| SMILES | pIC50 |
| --- | --- |
| C[C@@H](NC(=O)C12CC(C#N)(C1)C2)c1ccc2cc(-c3nc4cc(C(=O)N5C[C@H](N)[C@@H]6CC[C@H]5C6)cc(F)c4n3C3CC3)n(CC3CC3)c2n1 [Example 233, N-((R)-1-(2-(5-((1S,4R,5R)-4-amino-2-azabicyclo[3.2.1]octane-2-carbonyl)-1-cyclopropyl-7-fluoro-1H-benzo[d]imidazol-2-yl)-1-(cyclopropylmethyl)-1H-pyrrolo[2,3-b]pyridin-6-yl)ethyl)-3-cyanobicyclo[1.1.1]pentane-1-carboxamide] | 7.11 |
| COc1cc(C(=O)N2C[C@H](N)[C@@H]3CC[C@H]2C3)cc2nc(-c3cc4ccc([C@@H](C)NC(=O)c5ccccc5Cl)nc4n3CC3CC3)n(C)c12 [Example 293, N-((R)-1-(2-(5-((1S,4R,5R)-4-amino-2-azabicyclo [3.2.1]octane-2-carbonyl)-7-methoxy-1-methyl-1H-benzo[d]imidazol-2-yl)-1-(cyclopropylmethyl)-1H-pyrrolo[2,3-b]pyridin-6-yl)ethyl)-2-chlorobenzamide] | 7.09 |

More lines, now with the values ahead:

| pIC50 | SMILES |
| --- | --- |
| 7.04 | COc1cc(C(=O)N2C[C@H](N)[C@@H]3CC[C@H]2C3)cc2nc(-c3cc4ccc([C@@H](C)NC(=O)C(C)(C)F)nc4n3CC3CC3)n(C)c12 [Example 325, N-((R)-1-(2-(5-((1S,4R,5R)-4-amino-2-azabicyclo[3.2.1]octane-2-carbonyl)-7-methoxy-1-methyl-1H-benzo[d]imidazol-2-yl)-1-(cyclopropylmethyl)-1H-pyrrolo[2,3-b]pyridin-6-yl)ethyl)-2-fluoro-2-methylpropanamide] |
| 6.56 | COc1cc(C(=O)N2C[C@H](N)[C@@H]3CC[C@H]2C3)cc2nc(-c3cc4ccc([C@@H](C)NC(=O)c5ccccc5OC(F)(F)F)nc4n3CC3CC3)n(C)c12 [Example 294, N-((R)-1-(2-(5-((1S,4R,5R)-4-amino-2-azabicyclo [3.2.1]octane-2-carbonyl)-7-methoxy-1-methyl-1H-benzo[d]imidazol-2-yl)-1-(cyclopropylmethyl)-1H-pyrrolo[2,3-b]pyridin-6-yl)ethyl)-2-(trifluoromethoxy)benzamide] |
| 6.60 | COc1cc(C(=O)N2C[C@H](N)[C@@H]3CC[C@H]2C3)cc2nc(-c3cc4ccc([C@@H](C)NC(=O)C(C)(C)C)nc4n3CC(C)(C)O)n(C)c12 [Example 330, N-((R)-1-(2-(5-((1S,4R,5R)-4-amino-2-azabicyclo[3.2.1]octane-2-carbonyl)-7-methoxy-1-methyl-1H-benzo[d]imidazol-2-yl)-1-(2-hydroxy-2-methylpropyl)-1H-pyrrolo[2,3-b]pyridin-6-yl)ethyl)pivalamide] |
| 7.09 | COc1cc(C(=O)N2C[C@H](N)[C@@H]3CC[C@H]2C3)cc2nc(-c3cc4ccc([C@@H](C)NC(=O)c5cnc(C(F)F)nc5)nc4n3CC3CC3)n(C)c12 [Example 315, N-((R)-1-(2-(5-((1S,4R,5R)-4-amino-2-azabicyclo[3.2.1]octane-2-carbonyl)-7-methoxy-1-methyl-1H-benzo[d]imidazol-2-yl)-1-(cyclopropylmethyl)-1H-pyrrolo[2,3-b]pyridin-6-yl)ethyl)-2-(difluoromethyl)pyrimidine-5-carboxamide] |
| 7.18 | COc1cc(C(=O)N2C[C@H](N)[C@@H]3CC[C@H]2C3)cc2nc(-c3cc4ccc([C@@H](C)NC(=O)c5c(F)cccc5F)nc4n3CC3CC3)n(C)c12 [Example 295, N-((R)-1-(2-(5-((1S,4R,5R)-4-amino-2-azabicyclo[3.2.1]octane-2-carbonyl)-7-methoxy-1-methyl-1H-benzo[d]imidazol-2-yl)-1-(cyclopropylmethyl)-1H-pyrrolo[2,3-b]pyridin-6-yl)ethyl)-2,6-difluorobenzamide] |
| 6.91 | COc1cc(C(=O)N2C[C@H](N)[C@@H]3CC[C@H]2C3)cc2nc(-c3cc4ccc([C@@H](C)NC(=O)C56CC(F)(C5)C6)nc4n3CC3CC3)n(C3CC3)c12 [Example 317, N-((R)-1-(2-(5-((1S,4R,5R)-4-amino-2-azabicyclo[3.2.1]octane-2-carbonyl)-1-cyclopropyl-7-methoxy-1H-benzo[d]imidazol-2-yl)-1-(cyclopropylmethyl)-1H-pyrrolo[2,3-b]pyridin-6-yl)ethyl)-3-fluorobicyclo[1.1.1]pentane-1-carboxamide] |
| 7.05 | C[C@@H](NC(=O)c1ccc(C(F)F)nc1)c1ccc2cc(-c3nc4cc(C(=O)N5C[C@H](N)[C@@H]6CC[C@H]5C6)cc(F)c4n3C3CC3)n(CC3CC3)c2n1 [Example 310, N-((R)-1-(2-(5-((1S,4R,5R)-4-amino-2-azabicyclo[3.2.1]octane-2-carbonyl)-1-cyclopropyl-7-fluoro-1H-benzo[d]imidazol-2-yl)-1-(cyclopropylmethyl)-1H-pyrrolo[2,3-b]pyridin-6-yl)ethyl)-6-(difluoromethyl)nicotinamide] |
